Laboratory results taken from patent publication US7388005B2, “Substituted 2-pyrimidinyl-6,7,8,9-tetrahydropyrimido[1,2-a]pyrimidin-4-one and 7-pyrimidinyl-2,3-dihydroimidazo [1,2-a]pyrimidin-5(1H)one derivatives for neurodegenerative disorders” (Sanofi-Aventis, priority 2001, dated 2008).

Experiments:
GSK3β = GSK3β (Homo sapiens, UniProt P49841); experiment: Inhibitory activity against GSK3β (TPK1), 33P-ATP phosphorylation of prephosphorylated GS1 peptide; format: biochemical
Method: Two different protocols can be used.
In a first protocol: 7.5 μM of prephosphorylated GS1 peptide and 10 μM ATP (containing 300,000 cpm of 33P-ATP) were incubated in 25 mM Tris-HCl, pH 7.5, 0.6 mM DTT, 6 mM MgCl2, 0.6 mM EGTA, 0.05 mg/ml BSA buffer for 1 hour at room temperature in the presence of GSK3β (total reaction volume: 100 microliters).
In a second protocol: 4.1 μM of prephosphorylated GS1 peptide and 42 μM ATP (containing 260,000 cpm 33P-ATP) were incubated in 80 mM Mes-NaOH, pH 6.5, 1 mM Mg acetate, 0.5 mM EGTA, 5 mM 2-mercaptoethanol, 0.02% Tween 20, 10% glycerol buffer for 2 hours at room temperature in the presence of GSK3β. Inhibitors were solubilised in DMSO (final solvent concentration in the reaction medium, 1%).
(§1) The reaction was stopped with 100 microliters of a solution made of 25 g polyphosphoric acid (85% P2O5), 126 ml 85% H3PO4, H2O to 500 ml and then diluted to 1:100 before use. An aliquot of the reaction mixture was then transferred to Whatman P81 cation exchange filters and rinsed with the solution described above. Incorporated 33P radioactivity was determined by liquid scintillation spectrometry.
The phosphorylated GS-1 peptide had the following sequence: NH2-[…](P)EDEE-COOH.
The GSK3β inhibitory activity of the compounds of the present invention are expressed in IC50, and as an illustration the range of IC50's of the compounds in table 1 is between 2 nanomolar to 2 micromolar concentrations, of the compounds in table 2 is between 30 nanomolar to 2 micromolar concentrations and of the compounds in table 3 is between 1 nanomolar to 2 micromolar concentrations.

cdk5/p25 = cdk5/p25 (Homo sapiens, UniProt Q00535); experiment: Inhibitory activity against cdk5/p25 (TPK2), 33P-ATP phosphorylation of Histone H1; format: biochemical
Sequence of cdk5/p25 (Q00535 whole entry, species assumed): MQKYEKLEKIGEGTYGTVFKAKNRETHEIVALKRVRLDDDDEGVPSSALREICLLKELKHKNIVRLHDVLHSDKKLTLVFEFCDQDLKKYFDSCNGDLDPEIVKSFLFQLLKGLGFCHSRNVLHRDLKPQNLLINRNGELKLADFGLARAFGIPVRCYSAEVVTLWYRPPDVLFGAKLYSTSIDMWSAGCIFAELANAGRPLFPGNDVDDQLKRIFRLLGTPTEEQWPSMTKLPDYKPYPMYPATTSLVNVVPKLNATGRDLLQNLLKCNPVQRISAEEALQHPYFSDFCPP
Sequence of cdk5/p25 (Q15078 99-307 partner limits assumed, species assumed): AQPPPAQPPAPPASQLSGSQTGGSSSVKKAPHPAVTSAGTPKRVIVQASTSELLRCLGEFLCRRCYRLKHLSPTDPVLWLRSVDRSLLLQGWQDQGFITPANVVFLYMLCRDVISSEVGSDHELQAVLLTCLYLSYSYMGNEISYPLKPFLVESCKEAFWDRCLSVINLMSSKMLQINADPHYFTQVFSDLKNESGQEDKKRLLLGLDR
Method: The following protocol may be used:
0.4 mg/ml Histone H1 and 10 μM ATP (containing 300,000 cpm of ^33P-ATP) were incubated in 50 mM Hepes, pH 7.2, 1 mM DTT, 1 mM MgCl2, 1 mM EGTA, 0.02% Tween 20 buffer for 1 hour at room temperature in the presence of cdk5/p25 (total reaction volume: 100 microliters).
Inhibitors were solubilised in DMSO (final solvent concentration in the reaction medium, 1%).
as §1, with “solution” for “solution made”, “(diluted” for “and then diluted”, “use).” for “use.”, “^33P” for “33P”
The cdk5/p25 inhibitory activity of the compounds of the present invention are expressed as IC50 values. Typically, 3-fold serial dilutions of the inhibitor over at least a 1000-fold concentration range are used.

Sequence of GSK3β (P49841 whole entry, species assumed): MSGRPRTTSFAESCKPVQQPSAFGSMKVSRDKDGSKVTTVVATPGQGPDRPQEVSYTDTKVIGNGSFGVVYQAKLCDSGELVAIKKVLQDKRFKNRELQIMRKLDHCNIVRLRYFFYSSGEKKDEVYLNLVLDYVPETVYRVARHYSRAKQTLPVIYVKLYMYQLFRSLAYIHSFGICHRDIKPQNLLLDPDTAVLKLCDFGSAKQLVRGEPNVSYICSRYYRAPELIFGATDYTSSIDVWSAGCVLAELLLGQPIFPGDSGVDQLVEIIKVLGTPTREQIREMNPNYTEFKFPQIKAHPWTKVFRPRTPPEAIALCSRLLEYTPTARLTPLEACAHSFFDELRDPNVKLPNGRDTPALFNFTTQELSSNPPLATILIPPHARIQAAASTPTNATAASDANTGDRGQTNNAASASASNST

Row | SMILES | IC50 (GSK3β) [nM] | IC50 (cdk5/p25) [nM]
1 | CC1(C)CN(C[C@@H](O)c2ccccc2)c2nc(-c3ccncn3)cc(=O)n2C1 [Table 1 No. 19, 9-(2(S)-Hydroxy-2-phenyl-ethyl)-7,7-dimethyl-2-(pyrimidin-4-yl)-6,7,8,9-tetrahydro-pyrimido[1,2-a]pyrimidin-4-one] | 8 | 377
2 | Cc1c(-c2ccncn2)nc2n(c1=O)CCCN2CC(=O)c1ccccc1 [Table 1 No. 23, 3-Methyl-9-(2-oxo-2-phenyl-ethyl)-2-(pyrimidin-4-yl)-6,7,8,9-tetrahydro-pyrimido[1,2-a]pyrimidin-4-one] | 32 | 754
3 | O=c1c(Cl)c(-c2ccncn2)nc2n1CCCN2C[C@@H](O)c1ccccc1 [Table 1 No. 24, 3-Chloro-9-(2(S)-hydroxy-2-phenyl-ethyl)-2-(pyrimidin-4-yl)-6,7,8,9-tetrahydro-pyrimido[1,2-a]pyrimidin-4-one] | > 100 | 833
4 | CC1CCn2c(nc(-c3ccncn3)cc2=O)N1C[C@@H](O)c1ccccc1 (stereo partly drawn) [Table 3 No. 7, 9-[2(S)-Hydroxy-2-phenyl-ethyl]-8-methyl-2-(pyrimidin-4-yl)-6,7,8,9-tetrahydro-pyrimido[1,2-a]pyrimidin-4-one] | 12 | 833

Compounds with a lower IC50 (GSK3β), results first:

Row | IC50 (GSK3β) [nM] | IC50 (cdk5/p25) [nM] | SMILES
5 | 4 | > 1000 | COc1cc(F)ccc1C(O)CN1CC(C)(C)Cn2c1nc(-c1ccncn1)cc2=O (racemic) [Table 1 No. 69, 9-[2-(4-Fluoro-2-methoxy-phenyl)-2-hydroxy-ethyl]-7,7-dimethyl-2-(pyrimidin-4-yl)-6,7,8,9-tetrahydro-pyrimido[1,2-a]pyrimidin-4-one]
6 | 2 | 490 | O=c1cc(-c2ccncn2)nc2n1CCCN2C[C@@H](O)c1ccccc1 [Table 1 No. 9, 9-(2(S)-Hydroxy-2-phenyl-ethyl)-2-(pyrimidin-4-yl)-6,7,8,9-tetrahydro-pyrimido[1,2-a]pyrimidin-4-one]
7 | 5 | > 1000 | COc1ccccc1CCN1CC(C)(C)Cn2c1nc(-c1ccncn1)cc2=O [Table 1 No. 47, 9-[2-(2-Methoxy-phenyl)-ethyl]-7,7-dimethyl-2-(pyrimidin-4-yl)-6,7,8,9-tetrahydro-pyrimido[1,2-a]pyrimidin-4-one]
8 | 3.5 | > 1000 | COc1cc(F)ccc1CCN1CCCn2c1nc(-c1ccncn1)cc2=O [Table 1 No. 91, 9-[2-(4-Fluoro-2-methoxy-phenyl)-ethyl]-2-(pyrimidin-4-yl)-6,7,8,9-tetrahydro-pyrimido[1,2-a]pyrimidin-4-one]
9 | 4 | 1180 | CC1(C)CCn2c(nc(-c3ccncn3)cc2=O)N1C[C@@H](O)c1ccccc1 [Table 3 No. 11, 9-[2(S)-Hydroxy-2-phenyl-ethyl]-8,8-dimethyl-2-(pyrimidin-4-yl)-6,7,8,9-tetrahydro-pyrimido[1,2-a]pyrimidin-4-one]
10 | 2 | > 1000 | CC1(C)CCn2c(nc(-c3ccncn3)cc2=O)N1C[C@@H](O)c1ccc(Cl)cc1 [Table 3 No. 35, 9-[2-(4-Chloro-phenyl)-2(S)-hydroxy-ethyl]-8,8-dimethyl-2-(pyrimidin-4-yl)-6,7,8,9-tetrahydro-pyrimido[1,2-a]pyrimidin-4-one]
